Data on two compounds can be found in publication PMC10419416, “Fighting Pseudomonas aeruginosa Infections: Antibacterial and Antibiofilm Activity of D-Q53 CecB, a Synthetic Analog of a Silkworm Natural Cecropin B Variant” (International Journal of Molecular Sciences, 2023).

Data set [1] concerns P. aeruginosa ATCC 25668 strain. In words: EPS determination, phenol-sulfuric acid method. In kind it is cell-based, Pseudomonas aeruginosa. Particulars: 20 h incubation; 1/2 MIC L-Q53 CecB or 1/4 MIC D-Q53 CecB; OD490. The procedure:
Experiments were performed in LB medium supplemented 2% glucose to enhance the EPS production, as in [46]. Five mL of bacterial cultures (1 × 10^6 cells/mL) were added to the same volume of the peptide at a dilution not-inhibiting the bacterial growth (final concentrations 1.1 and 0.55 µM for L- and D-Q53 CecB, respectively, as in Section 4.11) and incubated at 37 °C for 20 h with agitation (200 rpm). 10 mL of bacterial culture (5 × 10^5 cells/mL) without any peptide were grown in parallel. Samples were incubated at 37 °C for 20 h with agitation. Glucan levels were determined as in [46, 75] with some modifications. For each sample, 5 mL were centrifuged at 5000× g for 10 min, and supernatants were collected in clean tubes; pellets were washed twice in 2.5 mL autoclaved water and centrifuged at 5000× g for 10 min, collecting supernatants again. Three volumes of chilled absolute ethanol were added to the collected supernatants and placed at 4 °C ON to precipitate polysaccharides. After centrifugation at 10,000× g for 10 min, pellets were washed with chilled ethanol 70% and resuspended in 5 mL 0.1 M NaOH. Two mL of 5% aqueous solution of phenol and 5 mL of concentrated sulphuric acid were added. Mixtures were incubated 10 min at RT in the dark, vortexed 30 sec, placed in a water bath at 25 °C 20 min and read at 490 nm. The experiment was performed four times, each condition in duplicate.

For data set [2], the system named is linearized DNA (pIVEX 2.3d plasmid). In words: Gel retardation assay, in vitro interaction with DNA. The settings on record: 100 ng DNA, 100-500 ng peptide, RT 1 h, 1% agarose gel; all tested conditions; three experiments. It is filed as binding. How it is done: One hundred ng of linearized DNA (pIVEX 2.3d plasmid) were incubated with increasing concentrations of the L- or D-peptides (0, 100, 150, 175, 200, 250, 275, 300, 350, 400, 450, 500 ng) at RT for 1 h. Samples were run into a 1% agarose gel in TAE buffer at 50 V and visualized in a Gel Doc X3+ (Biorad, Hercules, CA, USA). DNA band intensities were measured using the Image Lab software 6.1 (Biorad, Hercules, CA, USA). The band intensity reduction was calculated as the ratio between the band intensity in the presence of peptide over that of the untreated DNA. To compare the DNA binding activities of L- and D- peptides, for each peptide amount, we determined the ratio between the band intensity reduction with D-Q53 CecB and that with L-Q53 CecB. Three experiments have been performed.

Data set [3] has as its system P. aeruginosa ATCC 27853 and ATCC 25668 strains. Also noted: method as in PMID 31045339. Particulars: planktonic forms; cited from earlier work. The text has this: (§1) We, therefore, determined the anti-Pseudomonas activity of D-Q53 CecB in comparison to the L- counterpart versus the planktonic forms of the same ATCC 27853 and ATCC 25668 strains, and a third POA1-L strain (Lausanne subline).

Data set [4] concerns P. aeruginosa (non-mucoid: ATCC 27853; mucoid: ATCC 25668). Also noted: method as in PMID 31045339. Particulars: planktonic forms; cited from earlier work.
Description: as §1

The test system of a further data set is trypsin. The settings on record: cited from earlier work. The text has this:
Recently, we characterized Q53 CecB, a natural CecB variant derived from the silkworm Bombyx mori. […] Additionally, Q53 CecB maintains an anti-Pseudomonas activity at a high saline concent ...

The next data set deals with T1, P. aeruginosa elastase.
T1 construct: purchased Elastin Products Company
In words: Enzymatic digestion with P. aeruginosa elastase, RP-HPLC. The settings on record: isolated enzyme elastase; peptide 1 mg/mL in 10 mM Tris-HCl pH 7.5, 20 U P. aeruginosa elastase, 37 °C, 30 min, RP-HPLC C18 peak integration; read-out: % of full-length peptide. It is filed as in vitro ADME. How it is done: (§2) L- and D-Q53 CecB peptides, as well as the human LL-37 peptide (Merck, Burlington, MA, USA), were dissolved in 10 mM Tris-HCl, pH 7.5, at a final concentration of 1 mg/mL. Subsequently, 120 μL of each peptide solution were incubated at 37 °C with 20 U of human leukocyte elastase (Merck) or P. aeruginosa elastase (Elastin Products Company, Owensville, MO, USA) and 5 μL of 10 mM Tris-HCl, pH 7.5. At given time intervals (30, 60, 120, and 300 min), a volume corresponding to 30 μg of each peptide was diluted in 70 μL of 1% trifluoroacetic acid (TFA) to stop the reaction. Peptide suspensions,v without any enzyme (undigested controls), were processed in parallel. Each solution was analyzed by RP-HPLC, using a Phenomenex LC C18 analytical column (300 Å, […], 250 × 4.6 mm; Phenomenex, Torrance, CA, USA) and a Widepore C18 security guard cartridge (4 × 3.0 mm; Phenomenex, Torrance, CA, USA), in a 30 min-linear Acetonitrile (ACN) gradient (from 0% to 40% for L- and D-Q53 CecB peptides; from 20% to 60% for LL-37). A Waters Alliance 2695 Separations Module connected to a 996 PDA (Waters, Milford, MA, USA) was employed for RP-HPLC.

Data set [5] has as its system T2, human neutrophil elastase.
T2 construct: purchased Merck
Briefly: Enzymatic digestion with human neutrophil elastase, RP-HPLC. The settings on record: human, isolated enzyme elastase, pH 7.5. It is filed as in vitro ADME. The procedure: as §2

Non-standard residues stand in square brackets, D forms with d. Residues, ends and D or L forms follow the SMILES beside them. No end group written: not given here.

`CC[C@@H](C)[C@@H](NC(=O)[C@@H](C)NC(=O)[C@@H](CCCCN)NC(=O)[C@@H](C)NC(=O)[C@@H](CO)NC(=O)CNC(=O)[C@@H](CC(C)C)NC(=O)[C@H](NC(=O)[C@@H](CCC(N)=O)NC(=O)[C@H](NC(=O)[C@@H](C)NC(=O)[C@H]1CCCN1C(=O)CNC(=O)[C@@H](C)NC(=O)[C@@H](CCCCN)NC(=O)[C@H](NC(=O)[C@H](NC(=O)CNC(=O)[C@@H](CC(=O)O)NC(=O)[C@@H](CCCNC(=N)N)NC(=O)[C@H](NC(=O)[C@@H](CC(N)=O)NC(=O)[C@@H](CCCNC(=N)N)NC(=O)CNC(=O)[C@@H](CCSC)NC(=O)[C@@H](CCCCN)NC(=O)[C@@H](CCC(=O)O)NC(=O)[C@H](NC(=O)[C@@H](CCCCN)NC(=O)[C@@H](CCCCN)NC(=O)[C@@H](Cc1ccccc1)NC(=O)[C@H](NC(=O)[C@@H](CCCCN)NC(=O)[C@@H](Cc1c[nH]c2ccccc12)NC(=O)[C@H](N)CCCNC(=N)N)[C@H](C)CC)[C@H](C)CC)[C@H](C)CC)[C@H](C)CC)C(C)C)[C@H](C)CC)C(C)C)C(N)=O` [D-Q53 CecB] (H-[dR][dW][dK][dI][dF][dK][dK][dI][dE][dK][dM]G[dR][dN][dI][dR][dD]G[dI][dV][dK][dA]G[dP][dA][dI][dQ][dV][dL]G[dS][dA][dK][dA][dI]-NH2; N-terminus and C-terminus assumed): the “effect on water-soluble EPS production” value in data set [1] is listed as “significantly reduce”. Moreover, in data set [2], the “ratio between the DNA band intensities for D- and L-Q53 CecB” value is on record as ~ 1.
With “RWKIFKKIEKMGRNIRDGIVKAGPAIQVLGSAKAI-NH2 [L-Q53 CecB]”, in data set [1], the “effect on water-soluble EPS production” value is “did not show any significant effect”. Besides, the MBC in data set [3] was 11 µM. Also, the MIC in data set [4] is 2.2 µM. The “antibacterial activity after trypsin treatment” value in the data set with trypsin was “lost its antibacterial activity”. The remaining at 0.5 h, 1 mg/mL in the data set with P. aeruginosa elastase was about 0.2%. The compound further returned a remaining at 5 h, 1 mg/mL in data set [5] of 0.3%.

Usually MBC stands for the smallest concentration meeting the test's criterion for killing. Usually MIC stands for the lowest concentration that inhibits growth of the organism.
